According to ChEMBL document CHEMBL2073857, “Increased sensitivity to vincristine of MDR cells by the leukotriene D4 receptor antagonist, ONO-1078” (Cancer Lett, 1998):

Molecular target: Multidrug resistance-associated protein 1 (MRP1) (Homo sapiens, UniProt P33527)
Experiment: TP_TRANSPORTER: inhibition of LTC4 uptake (LTC4: 0.00134 uM, ONO-1078: 100 uM) in membrane vesicles from CV60 cells
Assay type: functional, cell membranes, Membrane vesicle
Design: scale not given: the % may be the effect or the level left
Conditions: probe LTC4 (0.00134 uM), read-out: Activity

Sequence of Multidrug resistance-associated protein 1 (MRP1) (P33527 whole entry): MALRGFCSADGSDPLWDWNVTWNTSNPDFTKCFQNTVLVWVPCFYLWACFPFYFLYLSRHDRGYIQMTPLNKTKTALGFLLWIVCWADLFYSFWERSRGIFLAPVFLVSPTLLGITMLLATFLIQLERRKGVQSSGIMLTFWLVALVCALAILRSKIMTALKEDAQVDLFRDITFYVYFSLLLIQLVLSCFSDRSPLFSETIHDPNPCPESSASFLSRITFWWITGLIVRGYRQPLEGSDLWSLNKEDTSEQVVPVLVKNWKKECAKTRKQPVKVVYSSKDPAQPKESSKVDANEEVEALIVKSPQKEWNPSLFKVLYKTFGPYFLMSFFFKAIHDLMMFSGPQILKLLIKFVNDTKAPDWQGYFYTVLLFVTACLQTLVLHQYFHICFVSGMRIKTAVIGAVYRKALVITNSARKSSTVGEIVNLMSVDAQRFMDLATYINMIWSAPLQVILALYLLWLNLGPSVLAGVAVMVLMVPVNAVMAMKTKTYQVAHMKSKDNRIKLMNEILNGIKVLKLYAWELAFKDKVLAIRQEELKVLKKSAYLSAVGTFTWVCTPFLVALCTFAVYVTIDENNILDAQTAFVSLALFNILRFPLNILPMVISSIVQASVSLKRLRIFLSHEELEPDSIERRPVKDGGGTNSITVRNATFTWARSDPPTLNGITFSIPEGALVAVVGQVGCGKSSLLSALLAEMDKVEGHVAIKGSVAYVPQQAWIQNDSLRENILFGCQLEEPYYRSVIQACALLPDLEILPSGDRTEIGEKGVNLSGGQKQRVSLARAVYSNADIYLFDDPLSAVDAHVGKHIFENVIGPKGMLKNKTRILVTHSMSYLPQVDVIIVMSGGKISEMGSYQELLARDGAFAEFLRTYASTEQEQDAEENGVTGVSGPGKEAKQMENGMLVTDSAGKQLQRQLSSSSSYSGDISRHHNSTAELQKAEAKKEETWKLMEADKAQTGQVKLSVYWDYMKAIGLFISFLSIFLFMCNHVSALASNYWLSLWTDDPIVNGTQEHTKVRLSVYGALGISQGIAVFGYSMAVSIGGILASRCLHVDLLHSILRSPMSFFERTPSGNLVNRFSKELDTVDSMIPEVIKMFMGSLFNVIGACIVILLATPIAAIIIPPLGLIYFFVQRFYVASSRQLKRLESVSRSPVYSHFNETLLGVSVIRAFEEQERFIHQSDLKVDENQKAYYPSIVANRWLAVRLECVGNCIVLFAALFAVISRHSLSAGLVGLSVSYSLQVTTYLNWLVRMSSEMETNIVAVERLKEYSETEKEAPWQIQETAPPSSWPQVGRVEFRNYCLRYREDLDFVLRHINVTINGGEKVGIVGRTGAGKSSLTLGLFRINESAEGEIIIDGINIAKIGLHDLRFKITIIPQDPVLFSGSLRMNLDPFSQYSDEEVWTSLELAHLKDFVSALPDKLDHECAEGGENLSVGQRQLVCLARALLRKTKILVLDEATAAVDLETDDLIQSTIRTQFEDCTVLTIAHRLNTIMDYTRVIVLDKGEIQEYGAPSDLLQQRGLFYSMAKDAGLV

activity at 100 µM: 55%
Compound: O=C(Nc1cccc2c(=O)cc(-c3nnn[nH]3)oc12)c1ccc(OCCCCc2ccccc2)cc1 [PRANLUKAST]
